In patent publication US20230053342A1, “IMIDAZOLIDINONE COMPOUND, PREPARATION METHOD THEREFOR AND USE THEREOF” (BETTA PHARMACEUTICALS CO., LTD, priority 2019, published 2023):

Tests used:
[1] = tested on: human tumor cells MCF-7; test: Cell proliferation assay (CellTiter Glo), MCF-7; type: cell-based; conditions: MCF7, MCF-7 cells incubated for 120 h, read-out: IC50(μM) of compound on MCF cell
Method: (§1) Method: The anti-proliferative effects on human tumor cells MCF-7 and HGC27 of certain compounds of the present invention were evaluated by CellTiter Glo assay.
(§2) Detection method: MCF-7 cells were suspended in DMEM culture medium, the cell concentration of which was adjusted to 25000 cells/mL; HGC27 cells were suspended in RPMI-1640 culture medium, the cell concentration of which was adjusted to 5000 cells/mL. 100 μL of cell suspension was dispensed to a 96-well assay plate and placed in a CO2 incubator overnight. The tested compounds were dissolved in DMSO, and 3-fold derail dilution was performed to obtain 10-point concentrations. the 10-point concentrations of the tested compounds or or negative control was transferred to the well containing 100 μL of culture medium respectively, incubated at 37° C., 5% CO2, the HGC27 cells were incubated for 96 h, MCF-7 cells were incubated for 120 h. Then 100 μL of CellTiter-Glo agent was added to the above-mentioned 96-well assay plate, incubated at room temperature for 10 minutes to allow stable luminescence signal. VICTOR™ X5 instrument was used to record RLU (relative luminescence unit), and then calculate the IC50 values were calculated.
(§3) Compound inhibition rate(% inh)=100% −(tested compound RLU-blank control RLU)/(negative control RLU-blank control RLU)*100%
(§4) Blank control: blank culture medium, with no compound or cell;
(§5) The IC50 (half inhibitory concentration) of the compound was obtained using the following nonlinear fitting formula:
(§6) Y=minimum inhibition rate+(max inhibition rate-minimum inhibition rate)/(1+10^((Log IC50−X)*slope)); wherein, X: the log value of the concentration of the tested compound; Y: the inhibition rate of the tested compound(% inh).

[2] = Pharmacokinetic test in male SD rats; type: in vivo; conditions: rat, plasma; for clearance: intravenous injection, 2 mg/kg; for AUC / Cmax: po, gavage, 10 mg/kg
Method: Method: 42 male SD rats, weight: 150-300 g. Divided into 7 groups randomly, with 6 rats in each group. Among the 6 rats in each group, three of them were administrated a single intravenous injection of […] of the example compound, the other three were given intragastric administration of […] of the example compound, blood was collected from the orbital venous plexus at designated time points, plasma was separated, and stored in a −80° C. refrigerator for later use.
The protein of the resultant plasma was precipitated by acetonitrile, the supernatant was extracted, and mixed with water at the ratio of 1:1, took 10 μL of which for LC-MS/MS detection, and calculated the average was calculated.

[3] = tested on: human tumor cells HGC27; test: Cell proliferation assay (CellTiter Glo), HGC27; type: cell-based; conditions: HGC-27, HGC27 cells incubated for 96 h, read-out: IC50(μM) of ompound on HGC-27cell
Method: as §1, §2, §3, §4, §5, §6

[4] = target: PI3Kα (Homo sapiens, UniProt P42336); test: Kinase experiment (ADP-Glo, luminescence), PI3Kα; type: biochemical; conditions: final concentration of ATP 10 μM; read-out: IC50 of compound to PI3K (nM) α
Method: (§7) PI3Kα, PI3Kβ, PI3Kγ kinases undergo enzymatic reactions with their substrates ATP and PIP2:3PS, the amount of the product detected by ADP-Glo agent and luminescence method were used to reflect the enzymatic activities of PI3Kα, PI3Kβ, PI3Kγ (the final concentration of ATP is 10 μM). The above methods were used to test the inhibitory activity of certain compound of the present invention on PI3Kα, PI3Kβ and PI3Kγ kinase.
(§8) Agent: Basic kinase buffer (pH 7.5); PI3Kα, PI3Kβ, PI3Kγ kinase solutions; PIP2:3PS and ATP solutions; ADP-Glo kit (containing 10 mM MgCl2).
(§9) Wherein, the buffer composition: 50 mM Hepes (pH 7.2-7.5), 3 mM MgCl2, 1 mM EGTA, 0.03% CHAPS, 100 mM NaCl, 2 mM DTT; • Compound preparation: The tested compound was diluted to a specific concentration with 100% DMSO. • Process: 1) PI3Kα, PI3Kβ, or PI3Kγ protein solution were dispensed to a 384-well assay plate (6008280, PerkinElmer), and centrifuged at 1000 rpm for 1 minute. • 2) Tested compound, negative control DMSO or positive control BYL719 was dispensed to the above-mentioned 384-well assay plate with the kinase, centrifuged at 1000 rpm for 1 min, and incubated at 25° C. for 15 mins. • 3) PIP2:3PS&ATP solution was added to the above-mentioned 384-well assay plate, centrifuged at 1000 rpm for 1 min, incubated at 25° C. for 60 mins. • 4) 5 μL of ADP-Glo agent (10 mM MgCl2 contained) was transferred to the 384-well assay plate, centrifuged at 1000 rpm for 1 min, incubated at 25° C. for 40 mins. • 5) 10 μL of Detection agent was transferred to the 384-well assay plate, centrifuged at 1000 rpm for 1 min, incubated at 25° C. for 40 mins. • 6) RLU (Relative luminescence unit) value was measured by Envision multifunctional plate reader. The RLU value was used to characterize the degree of reaction between the enzyme and the substrate, and calculate the IC50 value. • 7) Data analysis:
(§10) Compound inhibition rate(% inh)=(negative control RLU-tested compound RLU)/(negative control RLU-positive control RLU)*100%
as §5
(§11) Y=minimum inhibition rate+(max inhibition rate-minimum inhibition rate)/(1+10^((Log IC50−X)*slope)); wherein, X is the log value of the concentration of the tested compound, Y is the inhibition rate of tested compound(% inh).

[5] = target: PI3Kβ (Homo sapiens, UniProt P42338); test: Kinase experiment (ADP-Glo, luminescence), PI3Kβ; type: biochemical; conditions: final concentration of ATP 10 μM; read-out: IC50 of compound to PI3K (nM) β
Method: as §7, §8, §9, §10, §5, §11

[6] = target: PI3Kγ (Homo sapiens, UniProt P48736); test: Kinase experiment (ADP-Glo, luminescence), PI3Kγ; type: biochemical; conditions: final concentration of ATP 10 μM; read-out: IC50 of compound to PI3K (nM) γ
Method: as §7, §8, §9, §10, §5, §11

Chain of PI3Kγ (P48736 whole entry): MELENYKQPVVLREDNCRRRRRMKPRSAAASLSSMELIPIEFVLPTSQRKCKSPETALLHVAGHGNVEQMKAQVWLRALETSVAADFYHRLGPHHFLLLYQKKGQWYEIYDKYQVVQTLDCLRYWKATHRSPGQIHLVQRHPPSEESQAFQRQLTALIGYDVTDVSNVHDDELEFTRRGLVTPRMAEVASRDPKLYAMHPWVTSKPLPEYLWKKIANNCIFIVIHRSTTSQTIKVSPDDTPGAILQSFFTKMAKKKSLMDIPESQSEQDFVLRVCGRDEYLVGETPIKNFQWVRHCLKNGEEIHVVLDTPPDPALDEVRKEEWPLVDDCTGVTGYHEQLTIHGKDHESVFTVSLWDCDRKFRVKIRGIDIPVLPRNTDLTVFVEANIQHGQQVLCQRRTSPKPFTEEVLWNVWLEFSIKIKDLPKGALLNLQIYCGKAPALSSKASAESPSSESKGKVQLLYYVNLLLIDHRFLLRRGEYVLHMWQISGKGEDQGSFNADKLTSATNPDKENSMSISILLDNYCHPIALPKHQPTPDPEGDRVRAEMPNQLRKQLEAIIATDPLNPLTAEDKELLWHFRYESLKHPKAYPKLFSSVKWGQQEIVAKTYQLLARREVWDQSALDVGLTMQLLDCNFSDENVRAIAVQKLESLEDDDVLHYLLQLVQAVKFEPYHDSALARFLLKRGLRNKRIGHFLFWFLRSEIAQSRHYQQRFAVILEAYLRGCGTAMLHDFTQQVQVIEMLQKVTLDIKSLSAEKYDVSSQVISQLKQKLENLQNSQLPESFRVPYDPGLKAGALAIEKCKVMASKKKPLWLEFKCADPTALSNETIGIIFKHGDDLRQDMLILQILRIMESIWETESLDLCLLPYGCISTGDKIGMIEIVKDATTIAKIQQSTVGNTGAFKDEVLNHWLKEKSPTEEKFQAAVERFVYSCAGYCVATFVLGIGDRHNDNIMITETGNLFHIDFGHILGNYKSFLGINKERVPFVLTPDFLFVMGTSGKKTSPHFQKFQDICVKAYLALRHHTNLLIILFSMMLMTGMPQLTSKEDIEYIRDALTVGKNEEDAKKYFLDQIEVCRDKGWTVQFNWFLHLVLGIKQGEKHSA
Chain of PI3Kα (P42336 whole entry): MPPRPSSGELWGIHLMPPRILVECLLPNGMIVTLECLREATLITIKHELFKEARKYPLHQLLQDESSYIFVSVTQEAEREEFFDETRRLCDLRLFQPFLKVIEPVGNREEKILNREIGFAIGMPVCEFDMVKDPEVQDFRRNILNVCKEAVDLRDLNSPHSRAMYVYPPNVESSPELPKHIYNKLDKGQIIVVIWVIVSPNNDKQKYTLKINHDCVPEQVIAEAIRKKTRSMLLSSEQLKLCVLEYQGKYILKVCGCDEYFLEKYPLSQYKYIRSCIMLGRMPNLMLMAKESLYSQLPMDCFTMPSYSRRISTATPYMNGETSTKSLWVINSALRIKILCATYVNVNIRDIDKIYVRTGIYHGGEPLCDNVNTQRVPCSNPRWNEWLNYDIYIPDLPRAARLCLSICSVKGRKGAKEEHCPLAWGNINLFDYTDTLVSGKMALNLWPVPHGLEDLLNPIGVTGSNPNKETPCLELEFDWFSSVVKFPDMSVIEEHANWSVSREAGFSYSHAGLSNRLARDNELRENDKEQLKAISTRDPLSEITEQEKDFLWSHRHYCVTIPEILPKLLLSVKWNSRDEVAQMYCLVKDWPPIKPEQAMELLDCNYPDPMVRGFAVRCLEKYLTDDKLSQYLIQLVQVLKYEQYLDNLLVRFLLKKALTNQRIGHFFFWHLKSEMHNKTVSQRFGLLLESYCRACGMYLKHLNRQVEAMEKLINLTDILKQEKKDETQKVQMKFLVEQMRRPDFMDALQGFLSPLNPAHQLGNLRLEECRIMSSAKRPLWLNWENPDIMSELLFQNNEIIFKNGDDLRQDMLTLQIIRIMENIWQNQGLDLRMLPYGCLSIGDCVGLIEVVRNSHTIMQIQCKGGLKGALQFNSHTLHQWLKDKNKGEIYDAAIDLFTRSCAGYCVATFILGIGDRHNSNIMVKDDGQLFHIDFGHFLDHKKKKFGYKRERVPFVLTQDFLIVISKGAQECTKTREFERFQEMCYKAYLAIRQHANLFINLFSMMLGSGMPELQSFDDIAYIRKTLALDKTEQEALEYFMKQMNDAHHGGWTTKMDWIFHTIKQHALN
Chain of PI3Kα (P27986 whole entry partner): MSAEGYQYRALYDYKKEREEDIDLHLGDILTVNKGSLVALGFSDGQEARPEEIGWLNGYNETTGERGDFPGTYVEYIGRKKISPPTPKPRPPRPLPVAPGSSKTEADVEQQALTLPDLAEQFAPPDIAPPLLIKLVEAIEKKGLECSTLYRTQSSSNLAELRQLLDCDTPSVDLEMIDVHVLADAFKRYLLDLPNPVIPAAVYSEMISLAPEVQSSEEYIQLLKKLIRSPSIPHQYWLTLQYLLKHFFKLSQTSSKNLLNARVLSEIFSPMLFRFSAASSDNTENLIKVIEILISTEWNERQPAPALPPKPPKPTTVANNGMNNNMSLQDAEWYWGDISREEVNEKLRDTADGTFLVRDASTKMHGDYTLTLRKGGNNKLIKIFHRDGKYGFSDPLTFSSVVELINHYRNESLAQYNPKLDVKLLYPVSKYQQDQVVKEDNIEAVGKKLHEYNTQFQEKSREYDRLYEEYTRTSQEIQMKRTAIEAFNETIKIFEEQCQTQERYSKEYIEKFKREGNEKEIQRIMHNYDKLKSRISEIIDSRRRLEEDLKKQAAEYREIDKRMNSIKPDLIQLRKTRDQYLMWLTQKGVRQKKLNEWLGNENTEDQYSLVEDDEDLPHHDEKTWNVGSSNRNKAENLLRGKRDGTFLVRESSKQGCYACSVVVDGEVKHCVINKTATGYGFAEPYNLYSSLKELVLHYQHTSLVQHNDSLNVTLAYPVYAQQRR
Chain of PI3Kβ (P42338 whole entry): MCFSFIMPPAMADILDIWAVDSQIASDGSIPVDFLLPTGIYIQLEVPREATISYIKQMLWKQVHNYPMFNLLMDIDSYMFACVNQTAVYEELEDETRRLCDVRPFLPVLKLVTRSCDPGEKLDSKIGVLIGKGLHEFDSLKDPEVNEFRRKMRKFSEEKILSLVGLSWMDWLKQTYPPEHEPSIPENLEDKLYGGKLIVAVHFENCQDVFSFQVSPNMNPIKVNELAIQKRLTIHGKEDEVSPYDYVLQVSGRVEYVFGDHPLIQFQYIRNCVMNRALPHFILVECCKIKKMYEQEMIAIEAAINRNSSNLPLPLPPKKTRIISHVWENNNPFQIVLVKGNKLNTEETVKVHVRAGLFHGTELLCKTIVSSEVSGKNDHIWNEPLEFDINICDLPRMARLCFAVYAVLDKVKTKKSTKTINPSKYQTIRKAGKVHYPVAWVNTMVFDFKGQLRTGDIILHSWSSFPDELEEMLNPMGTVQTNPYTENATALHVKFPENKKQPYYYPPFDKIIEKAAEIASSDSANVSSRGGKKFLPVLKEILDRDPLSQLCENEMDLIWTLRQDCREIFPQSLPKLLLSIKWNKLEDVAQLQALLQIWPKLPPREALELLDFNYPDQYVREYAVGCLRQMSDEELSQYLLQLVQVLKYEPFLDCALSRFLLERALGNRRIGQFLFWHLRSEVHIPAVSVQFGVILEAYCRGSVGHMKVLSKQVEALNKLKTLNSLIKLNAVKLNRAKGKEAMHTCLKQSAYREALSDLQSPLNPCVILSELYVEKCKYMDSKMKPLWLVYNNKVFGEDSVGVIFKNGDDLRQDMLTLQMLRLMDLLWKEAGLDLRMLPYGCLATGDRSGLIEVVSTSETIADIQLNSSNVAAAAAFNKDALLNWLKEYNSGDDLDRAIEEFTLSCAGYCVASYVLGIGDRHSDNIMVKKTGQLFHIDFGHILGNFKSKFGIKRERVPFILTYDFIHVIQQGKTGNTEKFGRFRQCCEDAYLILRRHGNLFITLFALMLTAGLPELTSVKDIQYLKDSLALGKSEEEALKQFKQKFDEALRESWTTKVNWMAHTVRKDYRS
Chain of PI3Kβ (P27986 whole entry partner): as the sequence (P27986 whole entry partner) above

## C[C@@H]1COC(=O)N1c1cn2c(n1)-c1ccc(N3CCC[C@H]3C(N)=O)cc1OCC2 [Control compound 1, (2S)-1-(2-((4R)-4-methyl-2-oxooxazolidin-3-yl)-5,6-dihydrobenzo[f]imidazo[1,2-d] [1,4]oxazepin-9-yl)pyrrolidine-2-carboxamide, reference compound]
[1]
  IC50: 0.444 µM
[2]
  clearance: 16.6 mL/min/kg
  AUC: 7880 ng·h/mL
  Cmax: 1960 ng/mL
[3]
  IC50: 1.58 µM

## NC(=O)[C@@H]1CCCN1c1ccc2c(c1)OCCn1cc(N3C(=O)CC[C@@H]3CO)nc1-2 [Control compound 2, (2S)-1-(2-((2R)-2-(hydroxymethyl)-5-oxopyrrolidine-1-yl)-5,6-dihydrobenzo[f]imidazo[1,2-d][1,4]oxazepin-9-yl)pyrrolidine-2-carboxamide, reference compound]
[1]
  IC50: 0.549 µM

## CC(C)(c1cc(-c2cn3c(n2)-c2ccc(N4CCC[C@H]4C(N)=O)cc2OCC3)ccn1)C(F)(F)F [Control compound 3, (2S)-1-(2-(2-(1,1,1-trifluoro-2-methylpropan-2-yl)pyridn-4-yl)-5,6-dihydrobenzo[f]imidazo[1,2-d][1,4]oxazepin-9-yl)pyrrolidine-2-carboxamide, reference compound]
[1]
  IC50: 0.519 µM
[3]
  IC50: 2.07 µM

## CC(C)C1C(=O)N(C)C(=O)N1c1cn2c(n1)-c1ccc(N3CCC[C@H]3C(N)=O)cc1OCC2 (stereo partly drawn) [Example 1, (2S)-1-(2-(5-isopropyl-3-methyl-2,4-dioxoimidazolidin-1-yl)-5,6-dihydrobenzo[f]imidazo [1,2-d][1,4]oxazepin-9-yl)pyrrolidine-2-carboxamide]
[1]
  IC50: 0.176 µM
[4]
  IC50: < 5 nM
[5]
  IC50: > 600 nM
[6]
  IC50: > 600 nM

## CC(C)C1C(=O)N(C2CC2)C(=O)N1c1cn2c(n1)-c1ccc(N3CCC[C@H]3C(N)=O)cc1OCC2 (stereo partly drawn) [Example 2, (2S)-1-(2-(3-cyclopropyl-5-isopropyl-2,4-dioxoimidazolidin-1-yl)-5,6-dihydrobenzo[f]imidazo[1,2-d][1,4]oxazepin-9-yl)pyrrolidine-2-carboxamide]
[1]
  IC50: 0.07 µM
[4]
  IC50: < 5 nM
[2]
  clearance: 1.98 mL/min/kg
  AUC: 53000 ng·h/mL
  Cmax: 4340 ng/mL
[5]
  IC50: > 600 nM
[3]
  IC50: 0.361 µM
[6]
  IC50: 300 to 600 nM

## CC(C)C1C(=O)N(CC(F)(F)F)C(=O)N1c1cn2c(n1)-c1ccc(N3CCC[C@H]3C(N)=O)cc1OCC2 (stereo partly drawn) [Example 3, (2S)-1-(2-(5-isopropyl-2,4-dioxo-3-(2,2,2-trifluoroethyl)imidazolidine-1-yl)-5,6-dihydrobenzo[f]imdazo[1,2-d] [1,4]oxazepin-9-yl)pyrrolidine-2-carboxamide]
[4]
  IC50: < 5 nM

## CC(C)C1C(=O)N(c2ccc(F)cc2)C(=O)N1c1cn2c(n1)-c1ccc(N3CCC[C@H]3C(N)=O)cc1OCC2 (stereo partly drawn) [Example 4, (2S)-1-(2-(3-(4-fluorophenyl)-5-isopropyl-2,4-dioxoimidazolidin-1-yl)-5,6-dihydrobenzo[f]imidazo [1,2-d][1,4]oxazepin-9-yl)pyrrolidine-2-carboxamide]
[4]
  IC50: 5 to 20 nM
[2]
  clearance: 4.75 mL/min/kg
  AUC: 29100 ng·h/mL
  Cmax: 2690 ng/mL
[5]
  IC50: > 600 nM
[6]
  IC50: > 600 nM

## CN1C(=O)C(C2CC2)N(c2cn3c(n2)-c2ccc(N4CCC[C@H]4C(N)=O)cc2OCC3)C1=O (stereo partly drawn) [Example 5, (2S)-1-(2-(5-cyclopropyl-3-methyl-2,4-dioxoimidazolidin-1-yl)-5,6-dihydrobenzo[f]imidazo [1,2-d] [1,4]oxazepin-9-yl) pyrrolidine-2-carboxamide]
[1]
  IC50: 0.373 µM
[4]
  IC50: 5 to 20 nM
[3]
  IC50: 4.07 µM

## CC(C)C1C(=O)N(C2CCC2)C(=O)N1c1cn2c(n1)-c1ccc(N3CCC[C@H]3C(N)=O)cc1OCC2 (stereo partly drawn) [Example 6, (2S)-1-(2-(3-cyclobutyl-5-isopropyl-2,4-dioxoimidazolidin-1-yl)-5,6-dihydrobenzo[f]imidazo [1,2-d] [1,4]oxazepin-9-yl)pyrrolidine-2-carboxamide]
[4]
  IC50: 5 to 20 nM

## CCN1C(=O)C(C(C)C)N(c2cn3c(n2)-c2ccc(N4CCC[C@H]4C(N)=O)cc2OCC3)C1=O (stereo partly drawn) [Example 7, (2S)-1-(2-(3-ethyl-5-isopropyl-2,4-dioxoimidazolidin-1-yl)-5,6-dihydrobenzo[f]imidazo [1,2-d] [1,4]oxazepin-9-yl) pyrrolidine-2-carboxamide]
[4]
  IC50: 5 to 20 nM

## CC(C)C1C(=O)N(c2ccccc2)C(=O)N1c1cn2c(n1)-c1ccc(N3CCC[C@H]3C(N)=O)cc1OCC2 (stereo partly drawn) [Example 9, (2S)-1-(2-(5-isopropyl-2,4-dioxo-3-phenylimidazolidine-1-yl)-5,6-dihydrobenzo[f]imidazo[1,2-d] [1,4]oxazepin-9-yl)pyrrolidine-2-carboxamide]
[1]
  IC50: 0.142 µM
[4]
  IC50: 5 to 20 nM

## CC(C)C1C(=O)N(C(C)C)C(=O)N1c1cn2c(n1)-c1ccc(N3CCC[C@H]3C(N)=O)cc1OCC2 (stereo partly drawn) [Example 23, (2S)-1-(2-(3,5-diisopropyl-2,4-dioxoimidazolidin-1-yl)-5,6-dihydrobenzo[f]imidazo[1,2-d] [1,4]oxazepin-9-yl)pyrrolidine-2-carboxamide]
[1]
  IC50: 0.074 µM
[4]
  IC50: < 5 nM
[2]
  clearance: 8.76 mL/min/kg
  AUC: 18600 ng·h/mL
  Cmax: 1830 ng/mL

## CN1C(=O)CN(c2cn3c(n2)-c2ccc(N4CCC[C@H]4C(N)=O)cc2OCC3)C1=O [Example 28, (2S)-1-(2-(3-methyl-2,4-dioxoimidazolidin-1-yl)-5,6-dihydrobenzo[f]imidazo[1,2-d] [1,4]oxazepin-9-yl)pyrrolidine-2-carboxamide]
[1]
  IC50: 0.468 µM
[3]
  IC50: 3.92 µM

## CC(C)[C@@H]1C(=O)N(C2CC2)C(=O)N1c1cn2c(n1)-c1ccc(N3CCC[C@H]3C(N)=O)cc1OCC2 [Example 32, (2S)-1-(2-((5R)-3-cyclopropyl-5-isopropyl-2,4-dioxoimidazolidin-1-yl)-5,6-dihydrobenzo[f]imidazo[1,2-d] [1,4]oxazepin-9-yl)pyrrolidine-2-carboxamide]
[1]
  IC50: 0.107 µM
[4]
  IC50: < 5 nM
[2]
  clearance: 1.5 mL/min/kg
  AUC: 66400 ng·h/mL
  Cmax: 5030 ng/mL
[5]
  IC50: 300 to 600 nM
[3]
  IC50: 0.415 µM
[6]
  IC50: 300 to 600 nM
